Test results: US20250073340A1, “SPIROCYCLIC MDM2 MODULATOR AND USES THEREOF” (Newave Pharmaceutical Inc., priority 2021, published 2025)

Experiments:
[1] = biological target: MDM2 (Homo sapiens (Human), UniProt Q00987); test: In vitro MDM2 HTRF assay (inhibition of p53-MDM2 interaction); format: binding; details: GST-MDM2 / biotinylated p53 peptide
[2] = test system: BCL-2-dependent acute lymphoblastic leukemia (ALL) cell line RS4;11 overexpressing Bcl-2 G101V; test: cells; format: cell-based; details: Homo sapiens, RS4-11; about 72 hours, ATPlite luminescence; read-out: RS4;11-G101V IC50
How it was run: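 About 1×10^4 cells per well treated with compound for about 72 hours in medium with 5% FBS or 10% normal human serum. Viability from ATP-based luminescence (ATPlite) after lysis; IC50 derived from dose range.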

[3] = Mice PK study; format: in vivo; details: 25 mg/kg; Oral, 25 mpk, CD-1 mouse, plasma
Procedure: Biological Example 4: Mice PK Study
The pharmacokinetics of compounds were evaluated in CD-1 mouse via Intravenous and Oral Administration. The IV dose was administered as a slow bolus in the Jugular vein, and oral doses were administered by gavage. The formulation for IV dosing was 5% DMSO in 20% HPBCD in water, and the PO formulation was 2.5% DMSO, 10% EtOH, 20% Cremphor EL, 67.5% D5W. The PK time point for the IV arm was 5, 15, 30 min, 1, 2, 4, 6, 8, 12, 24 hours post dose, and for PO arm was 15, 30 min, 1, 2, 4, 6, 8, 12, 24 hours post dose. Approximately 0.03 mL blood was collected at each time point. Blood of each sample was transferred into plastic micro centrifuge tubes containing EDTA-K2 and collect plasma within 15 min by centrifugation at 4000 g for 5 minutes in a 4° C. centrifuge. Plasma samples were stored in polypropylene tubes. The samples were stored in a freezer at −75±15° C. prior to analysis. Concentrations of compounds in the plasma samples were analyzed using a LC-MS/MS method. […] The following pharmacokinetic parameters were calculated, whenever possible from the plasma concentration versus time data: IV administration: C0, CL, Vd, T1/2, AUCinf, AUClast, MRT, Number of Points for Regression; PO administration: Cmax, Tmax, T1/2, AUCinf, AUClast, F %, Number of Points for Regression. […]

Chain of MDM2 (Q00987 whole entry): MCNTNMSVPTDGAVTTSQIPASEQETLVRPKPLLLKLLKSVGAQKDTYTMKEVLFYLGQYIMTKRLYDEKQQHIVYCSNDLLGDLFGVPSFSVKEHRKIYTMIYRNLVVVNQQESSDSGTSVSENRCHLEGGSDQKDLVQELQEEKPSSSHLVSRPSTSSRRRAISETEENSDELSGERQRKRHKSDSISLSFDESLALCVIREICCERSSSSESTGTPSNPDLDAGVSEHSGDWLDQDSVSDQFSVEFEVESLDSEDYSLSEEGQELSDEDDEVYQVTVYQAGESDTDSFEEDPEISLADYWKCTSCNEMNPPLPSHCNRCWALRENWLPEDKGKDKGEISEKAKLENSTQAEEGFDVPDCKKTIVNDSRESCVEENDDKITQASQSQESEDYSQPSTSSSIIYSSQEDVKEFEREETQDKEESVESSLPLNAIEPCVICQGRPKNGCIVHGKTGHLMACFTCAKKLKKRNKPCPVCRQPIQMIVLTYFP

SMILES	IC50 [1] [nM]	IC50 [2] [nM]	AUC [3] [ng·h/mL]
COc1cc(C(=O)N2CCCC[C@H]2CCC#Cc2cccc3c2CN([C@H]2CCC(=O)NC2=O)C3=O)ccc1NC(=O)[C@@H]1N[C@@H](CC(C)(C)C)[C@@]2(CNc3cc(Cl)ccc32)[C@H]1c1cccc(Cl)c1F [Example 39, (2′S,3S,4′S,5′R)-6-chloro-4′-(3-chloro-2-fluorophenyl)-2′-(2,2-dimethylpropyl)-N-{4-[(2S)-2-(4-{2-[(3S)-2,6-dioxopiperidin-3-yl]-1-oxo-3H-isoindol-4-yl}but-3-yn-1-yl)piperidine-1-carbonyl]-2-methoxyphenyl}-1,2-dihydrospiro[indole-3,3′-pyrrolidine]-5′-carboxamide]	2.67	127	
COc1cc(C(=O)N2CCC3(CC2)C[C@H]3C#Cc2cccc3c2CN(C2CCC(=O)NC2=O)C3=O)ccc1NC(=O)[C@@H]1N[C@@H](CC(C)(C)C)[C@@]2(CNc3cc(Cl)ccc32)[C@H]1c1cccc(Cl)c1F (stereo partly drawn) [Example 43, (2′S,3S,4′S,5′R)-6-chloro-4′-(3-chloro-2-fluorophenyl)-2′-(2,2-dimethylpropyl)-N-{4-[(1R)-1-{2-[2-(2,6-dioxopiperidin-3-yl)-1-oxo-3H-isoindol-4-yl]ethynyl}-6-azaspiro[2.5]octane-6-carbonyl]-2-methoxyphenyl}-1,2-dihydrospiro[indole-3,3′-pyrrolidine]-5′-carboxamide]	4.67	28.3	
COc1cc(C(=O)N[C@@H]2CCCN(CC#Cc3cccc4c3CN(C3CCC(=O)NC3=O)C4=O)C2)ccc1NC(=O)[C@@H]1N[C@@H](CC(C)(C)C)[C@@]2(CNc3cc(Cl)ccc32)[C@H]1c1cccc(Cl)c1F (stereo partly drawn) [Example 50, (2′S,3S,4′S,5′R)-6-chloro-4′-(3-chloro-2-fluorophenyl)-2′-(2,2-dimethylpropyl)-N-(4-{[(3R)-1-{3-[2-(2,6-dioxopiperidin-3-yl)-1-oxo-3H-isoindol-4-yl]prop-2-yn-1-yl}piperidin-3-yl]carbamoyl}-2-methoxyphenyl)-1,2-dihydrospiro[indole-3,3′-pyrrolidine]-5′-carboxamide]	1.59	23.5	
COc1cc(C(=O)N2CCC3(CC2)C[C@@H]3C#Cc2cccc3c2CN([C@H]2CCC(=O)NC2=O)C3=O)ccc1NC(=O)[C@@H]1N[C@@H](CC(C)(C)C)[C@@]2(CNc3cc(C(F)(F)F)ncc32)[C@H]1c1cccc(Cl)c1F [Example 56, (2S,3S,4S,5R)-4-(3-chloro-2-fluorophenyl)-N-(4-((S)-1-((2-((S)-2,6-dioxopiperidin-3-yl)-1-oxoisoindolin-4-yl)ethynyl)-6-azaspiro[2.5]octane-6-carbonyl)-2-methoxyphenyl)-2-neopentyl-6′-(trifluoromethyl)-1′,2′-dihydrospiro[pyrrolidine-3,3′-pyrrolo[3,2-c]pyridine]-5-carboxamide]	23.4	1.09	
COc1cc(C(=O)N2CCC3(CC2)C[C@@H]3C#Cc2cccc3c2CN([C@H]2CCC(=O)NC2=O)C3=O)ccc1NC(=O)[C@@H]1N[C@@H](CC(C)(C)C)[C@@]2(CNc3cc(Cl)ccc32)[C@H]1c1cccc(Cl)c1F [Example 58, (2′S,3S,4′S,5′R)-6-chloro-4′-(3-chloro-2-fluorophenyl)-2′-(2,2-dimethylpropyl)-N-{4-[(1S)-1-(2-{2-[(3S)-2,6-dioxopiperidin-3-yl]-1-oxo-3H-isoindol-4-yl}ethynyl)-6-azaspiro[2.5]octane-6-carbonyl]-2-methoxyphenyl}-1,2-dihydrospiro[indole-3,3′-pyrrolidine]-5′-carboxamide]	3.38	7.71	49400

Continued by falling IC50 [1], values first:

IC50 [1] [nM]	IC50 [2] [nM]	AUC [3] [ng·h/mL]	SMILES
4.51	99.1		COc1cc(C(=O)N2CCC3(CC2)CC(C#Cc2cccc4c2CN(C2CCC(=O)NC2=O)C4=O)C3)ccc1NC(=O)[C@@H]1N[C@@H](CC(C)(C)C)[C@@]2(CNc3cc(Cl)ccc32)[C@H]1c1cccc(Cl)c1F (stereo partly drawn) [Example 42, (2′S,3S,4′S,5′R)-6-chloro-4′-(3-chloro-2-fluorophenyl)-N-(4-(2-((2-(2,6-dioxopiperidin-3-yl)-1-oxoisoindolin-4-yl)ethynyl)-7-azaspiro[3.5]nonane-7-carbonyl)-2-methoxyphenyl)-2′-neopentylspiro[indoline-3,3′-pyrrolidine]-5′-carboxamide]
1.83	13.1		COc1cc(C(=O)N2CCC3(CC2)C[C@@H]3C#Cc2cccc3c2CN(C2CCC(=O)NC2=O)C3=O)ccc1NC(=O)[C@@H]1N[C@@H](CC(C)(C)C)[C@@]2(CNc3cc(Cl)ccc32)[C@H]1c1cccc(Cl)c1F (stereo partly drawn) [Example 44, (2′S,3S,4′S,5′R)-6-chloro-4′-(3-chloro-2-fluorophenyl)-2′-(2,2-dimethylpropyl)-N-{4-[(1S)-1-{2-[2-(2,6-dioxopiperidin-3-yl)-1-oxo-3H-isoindol-4-yl]ethynyl}-6-azaspiro[2.5]octane-6-carbonyl]-2-methoxyphenyl}-1,2-dihydrospiro[indole-3,3′-pyrrolidine]-5′-carboxamide]
1.42	18.3		COc1cc(C(=O)N2CCN(CC#Cc3cccc4c3CN(C3CCC(=O)NC3=O)C4=O)CC2)ccc1NC(=O)[C@@H]1N[C@@H](CC(C)(C)C)[C@@]2(CNc3cc(Cl)ccc32)[C@H]1c1cccc(Cl)c1F (stereo partly drawn) [Example 51, (2′S,3S,4′S,5′R)-6-chloro-4′-(3-chloro-2-fluorophenyl)-2′-(2,2-dimethylpropyl)-N-[4-(4-{3-[2-(2,6-dioxopiperidin-3-yl)-1-oxo-3H-isoindol-4-yl]prop-2-yn-1-yl}piperazine-1-carbonyl)-2-methoxyphenyl]-1,2-dihydrospiro[indole-3,3′-pyrrolidine]-5′-carboxamide]
1.21	12.4		COc1cc(C(=O)N2CC[C@H](C#Cc3cccc4c3CN(C3CCC(=O)NC3=O)C4=O)C2)ccc1NC(=O)[C@@H]1N[C@@H](CC(C)(C)C)[C@@]2(CNc3cc(Cl)ccc32)[C@H]1c1cccc(Cl)c1F (stereo partly drawn) [Example 48, (2′S,3S,4′S,5′R)-6-chloro-4′-(3-chloro-2-fluorophenyl)-2′-(2,2-dimethylpropyl)-N-{4-[(3R)-3-{2-[2-(2,6-dioxopiperidin-3-yl)-1-oxo-3H-isoindol-4-yl]ethynyl}pyrrolidine-1-carbonyl]-2-methoxyphenyl}-1,2-dihydrospiro[indole-3,3′-pyrrolidine]-5′-carboxamide]
1.05	14.1		COc1cc(C(=O)N2CC[C@@H](C#Cc3cccc4c3CN(C3CCC(=O)NC3=O)C4=O)C2)ccc1NC(=O)[C@@H]1N[C@@H](CC(C)(C)C)[C@@]2(CNc3cc(Cl)ccc32)[C@H]1c1cccc(Cl)c1F (stereo partly drawn) [Example 49, (2′S,3S,4′S,5′R)-6-chloro-4′-(3-chloro-2-fluorophenyl)-2′-(2,2-dimethylpropyl)-N-{4-[(3S)-3-{2-[2-(2,6-dioxopiperidin-3-yl)-1-oxo-3H-isoindol-4-yl]ethynyl}pyrrolidine-1-carbonyl]-2-methoxyphenyl}-1,2-dihydrospiro[indole-3,3′-pyrrolidine]-5′-carboxamide]
